Measured values from ChEMBL document CHEMBL1201862, “PubChem BioAssay data set” (2004).
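Briefly, cells in 96-well plates were exposed to five compound concentrations for 48 h, and endpoints were estimated by linear interpolation. The concentration for 50% growth inhibition is given as GI50.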 Activity calls are given as the source filed them. Rule as the data show it: active = GI50 up to about 1.1 µM and inactive = higher.

How the values were obtained:
Experiment in all cases: inhibition of tumour cell growth, NCI panel, 48 h
U-251 = test system: U-251
SNB-19 = test system: SNB-19
SR = test system: SR
Malme-3M = test system: Malme-3M
HOP-92 = test system: HOP-92
OVCAR-8 = test system: OVCAR-8
OVCAR-4 = test system: OVCAR-4
PC-3 = test system: PC-3
SW-620 = test system: SW-620
HOP-62 = test system: HOP-62
HL-60 = test system: HL-60
IGROV-1 = test system: IGROV-1
M14 = test system: M14
NCI-H23 = test system: NCI-H23
SK-OV-3 = test system: SK-OV-3
CCRF-CEM = test system: CCRF-CEM
MCF7 = test system: MCF7
MDA-MB-231 = test system: MDA-MB-231
HCC 2998 = test system: HCC 2998
HT-29 = test system: HT-29
SF-295 = test system: SF-295
UACC-257 = test system: UACC-257
CAKI-1 = test system: CAKI-1
MDA-MB-435 = test system: MDA-MB-435
DU-145 = test system: DU-145
RPMI-8226 = test system: RPMI-8226
A549 = test system: A549
MOLT-4 = test system: MOLT-4
MDA-N = test system: MDA-N
HCT-15 = test system: HCT-15
UACC-62 = test system: UACC-62
LOX IMVI = test system: LOX IMVI
T47D = test system: T47D
SF-268 = test system: SF-268
786-0 = test system: 786-0
COLO 205 = test system: COLO 205
RXF 393 = test system: RXF 393
SNB-75 = test system: SNB-75
SK-MEL-28 = test system: SK-MEL-28
SK-MEL-5 = test system: SK-MEL-5
KM12 = test system: KM12
TK-10 = test system: TK-10
SN12C = test system: SN12C
NCI/ADR-RES = test system: NCI/ADR-RES
OVCAR-5 = test system: OVCAR-5
K562 = test system: K562
NCI-H460 = test system: NCI-H460
ACHN = test system: ACHN
SK-MEL-2 = test system: SK-MEL-2
A498 = test system: A498
EKVX = test system: EKVX
OVCAR-3 = test system: OVCAR-3
NCI-H226 = test system: NCI-H226
NCI-H522 = test system: NCI-H522
SF-539 = test system: SF-539
HCT-116 = test system: HCT-116

Cc1cc(NCCCCCCNc2cc(C)nc3ccc(N)cc23)c2cc(N)ccc2n1
GI50 (U-251): 62.8 µM (inactive)
GI50 (SNB-19): 58.5 µM (inactive)

COc1ccc(C2=C(OC(C)=O)c3cccn3-c3ccccc3S2)cc1
GI50 (SR): 3.36 µM (inactive)
GI50 (Malme-3M): 2.7 µM (inactive)
GI50 (HOP-92): 1.58 µM (inactive)
GI50 (OVCAR-8): 5.82 µM (inactive)
GI50 (OVCAR-4): 4.69 µM (inactive)
GI50 (PC-3): 2.3 µM (inactive)
GI50 (SW-620): 2.55 µM (inactive)
GI50 (HOP-62): 3.1 µM (inactive)
GI50 (HL-60): 0.512 µM (active)
GI50 (IGROV-1): 4.81 µM (inactive)
GI50 (M14): 5.68 µM (inactive)
GI50 (NCI-H23): 1.89 µM (inactive)
GI50 (SK-OV-3): 2.65 µM (inactive)
GI50 (CCRF-CEM): 2.9 µM (inactive)
GI50 (MCF7): 3.48 µM (inactive)
GI50 (MDA-MB-231): 0.728 µM (active)
GI50 (HCC 2998): 2.95 µM (inactive)
GI50 (HT-29): 2.19 µM (inactive)
GI50 (SF-295): 1.45 µM (inactive)
GI50 (UACC-257): > 10 µM (inactive)
GI50 (CAKI-1): 4.55 µM (inactive)
GI50 (MDA-MB-435): 0.265 µM (active)
GI50 (DU-145): 2.46 µM (inactive)
GI50 (RPMI-8226): 2.4 µM (inactive)
GI50 (A549): 7.53 µM (inactive)
GI50 (MOLT-4): 4.06 µM (inactive)
GI50 (MDA-N): 0.34 µM (active)
GI50 (HCT-15): 1.18 µM
GI50 (UACC-62): 2.9 µM (inactive)
GI50 (LOX IMVI): 4.55 µM (inactive)
GI50 (T47D): 5.9 µM (inactive)
GI50 (SF-268): > 10 µM (inactive)
GI50 (786-0): 2.46 µM (inactive)
GI50 (COLO 205): 2.7 µM (inactive)
GI50 (RXF 393): 1.61 µM (inactive)
GI50 (SNB-75): 2.41 µM (inactive)
GI50 (SK-MEL-28): 3.66 µM (inactive)
GI50 (SK-MEL-5): 3.37 µM (inactive)
GI50 (KM12): 2.62 µM (inactive)
GI50 (TK-10): > 10 µM (inactive)
GI50 (SN12C): 1.29 µM (inactive)

O=C1c2ccccc2-c2nnc(-c3ccccc3)cc21
GI50 (SR): 3.83 µM (inactive)
GI50 (Malme-3M): > 10 µM (inactive)
GI50 (NCI/ADR-RES): > 10 µM (inactive)
GI50 (OVCAR-4): > 10 µM (inactive)
GI50 (OVCAR-5): > 10 µM (inactive)
GI50 (SW-620): 7.6 µM (inactive)
GI50 (HOP-62): > 10 µM (inactive)
GI50 (HL-60): 5.05 µM (inactive)
GI50 (IGROV-1): > 10 µM (inactive)
GI50 (U-251): > 10 µM (inactive)
GI50 (M14): > 10 µM (inactive)
GI50 (NCI-H23): > 10 µM (inactive)
GI50 (K562): 3.61 µM (inactive)
GI50 (SK-OV-3): > 10 µM (inactive)
GI50 (CCRF-CEM): 3.25 µM (inactive)
GI50 (MCF7): 3.37 µM (inactive)
GI50 (NCI-H460): > 10 µM (inactive)
GI50 (ACHN): > 10 µM (inactive)
GI50 (CAKI-1): > 10 µM (inactive)
GI50 (MDA-MB-435): > 10 µM (inactive)
GI50 (RPMI-8226): > 10 µM (inactive)
GI50 (A549): > 10 µM (inactive)
GI50 (MOLT-4): 3.01 µM (inactive)
GI50 (UACC-62): > 10 µM (inactive)
GI50 (T47D): 4.48 µM (inactive)
GI50 (SF-268): > 10 µM (inactive)
GI50 (SK-MEL-2): > 10 µM (inactive)
GI50 (786-0): > 10 µM (inactive)
GI50 (COLO 205): > 10 µM (inactive)
GI50 (RXF 393): > 10 µM (inactive)
GI50 (SNB-75): > 10 µM (inactive)
GI50 (SK-MEL-28): > 10 µM (inactive)
GI50 (SK-MEL-5): > 10 µM (inactive)

O=C1Oc2ccccc2C(=O)/C1=C/NC(=S)Nc1ccccc1
GI50 (NCI/ADR-RES): 38.5 µM (inactive)
GI50 (OVCAR-8): 44.3 µM (inactive)
GI50 (OVCAR-4): 39.6 µM (inactive)
GI50 (PC-3): 55.6 µM (inactive)
GI50 (OVCAR-5): 80.4 µM (inactive)
GI50 (HOP-62): 33.6 µM (inactive)
GI50 (A498): 24.6 µM (inactive)
GI50 (EKVX): 56.5 µM (inactive)
GI50 (OVCAR-3): 25.4 µM (inactive)
GI50 (M14): 27 µM (inactive)
GI50 (NCI-H226): 65.9 µM (inactive)
GI50 (NCI-H522): 30.1 µM (inactive)
GI50 (NCI-H23): 61.4 µM (inactive)
GI50 (K562): 56.4 µM (inactive)
GI50 (CCRF-CEM): 28.5 µM (inactive)
GI50 (NCI-H460): 32.1 µM (inactive)
GI50 (MDA-MB-231): 29 µM (inactive)
GI50 (HCC 2998): 40 µM (inactive)
GI50 (ACHN): 23.6 µM (inactive)
GI50 (SF-295): 52.2 µM (inactive)
GI50 (UACC-257): 77.6 µM (inactive)
GI50 (DU-145): 46.1 µM (inactive)
GI50 (A549): 48.8 µM (inactive)
GI50 (MOLT-4): 31.8 µM (inactive)
GI50 (MDA-N): 37.8 µM (inactive)
GI50 (HCT-15): 28.3 µM
GI50 (UACC-62): 0.834 µM (active)
GI50 (LOX IMVI): 51.1 µM (inactive)
GI50 (T47D): 5.96 µM (inactive)
GI50 (SF-268): 22.3 µM (inactive)
GI50 (SK-MEL-2): 15.1 µM (inactive)
GI50 (SF-539): 28.7 µM (inactive)
GI50 (COLO 205): 44.7 µM (inactive)
GI50 (RXF 393): 0.119 µM (active)
GI50 (SNB-75): 20.4 µM (inactive)
GI50 (SK-MEL-28): 44.2 µM (inactive)
GI50 (HCT-116): 34.8 µM (inactive)
GI50 (SK-MEL-5): 42.5 µM (inactive)
GI50 (KM12): 49.4 µM (inactive)
GI50 (SN12C): 40.1 µM (inactive)
